Molecules are shown by their SMILES. Where “and” joins values, the source holds several entries; their conditions need not be identical. Equal entries are not always repeated.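 Dose response: 5 concentrations. Exposure: 48 h. Format: 96-well plates. Endpoint: linear interpolation; highest concentration if not reached. Here, GI50 denotes the concentration required for 50% inhibition of growth. TGI is the concentration that stops growth completely.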 Bounds are passed on as bounds.

We go through seven compounds from PubChem BioAssay (NCI).

Common to all, as to assay: growth of human tumour cells (NCI), 48 h
Experiment [1] concerns DU-145 prostate.
In experiment [2] the test system is EKVX NSCLC.
In experiment [3] the test system is HCC-2998 colon.
Experiment [4] has as its system HCT-15 colon.
Experiment [5] relates to HL-60(TB) leukemia.
Experiment [6] concerns M14 melanoma.
The test system of experiment [7] is OVCAR-3 ovarian.
Experiment [8] relates to PC-3 prostate.
The subject of experiment [9] is SNB-75 CNS.
In experiment [10] the test system is UO-31 renal.

With `CC1=C(CCC(C)NCc2ccc(OCCCN3CCCCC3)cc2)C(C)(C)CCC1` (stereo not given), the GI50 in [1] was 1.85 µM; in experiment [2], 1.61 µM; in experiment [3] it was 0.232 µM; in experiment [4], 0.575 µM; in experiment [5], 2.14 µM; in experiment [6] it was 0.214 µM. The GI50 in experiment [7] was 1.79 µM; in [8], 1.54 µM; in experiment [9] it was 1.39 µM; in experiment [10], 1.56 µM. The TGI in [1] stood at 4.17 µM; in experiment [2] it was 3.94 µM; in experiment [3] it was 0.612 µM; in [4], 2.03 µM; in experiment [5] it was 4.2 µM; in [6], 0.468 µM. Also, the TGI in [7] was 4.07 µM; in experiment [8], 3.42 µM; in experiment [9], 2.72 µM; in experiment [10] it was 2.97 µM.
Take `COC(=O)Nc1nc2ccc(Oc3cccc(NC(=O)Nc4cc(C(F)(F)F)ccc4F)c3)cc2[nH]1`: the GI50 is greater than 25 µM in [1]; greater than 19.5 µM in experiment [2]; 13.2 µM in experiment [3]; 11.8 µM in experiment [4]; 4.98 µM in [5]; 7.67 µM in [6]. The GI50 in experiment [7] was 14 µM; in experiment [8], 14.3 µM; in experiment [9] it was 8.53 µM; in [10], 14.3 µM. Moreover, the TGI is greater than 25 µM in experiment [1]; greater than 25 µM in [2]; greater than 25 µM in experiment [3]; greater than 25 µM in experiment [4]; 18.5 µM in experiment [5]; greater than 25 µM in experiment [6]. Moreover, the TGI in [7], in experiment [8], in experiment [9] and in experiment [10] was greater than 25 µM in each case.
As for `COc1ccc(Cl)c(Nc2nc3ccccc3nc2NS(=O)(=O)c2cccc(NC(=O)C(C)(C)N)c2)c1`, the GI50 in [1] was 12.1 µM and > 10 µM; in [2] it was 6.25 µM and > 10 µM; in [3], 13 µM and 5.73 µM; in [4], 9.76 µM and 6.97 µM; in experiment [5] it was 5.93 µM and 2.1 µM; in experiment [6], 12.5 µM and > 10 µM. Also, the GI50 in [7] was 7.68 µM and 4.12 µM; in [8] it was 3.42 µM and 2.65 µM; in experiment [9], 1.35 µM and 0.481 µM; in experiment [10] it was 1.9 µM and 2.03 µM. For the same compound, the TGI is 25 µM and > 10 µM in experiment [1]; 21 µM and > 10 µM in experiment [2]; 26.6 µM and > 10 µM in experiment [3]; 22 µM and > 10 µM in experiment [4]; 20.7 µM and > 10 µM in experiment [5]; 29 µM and > 10 µM in experiment [6]. The TGI in [7] was 21.3 µM and > 10 µM; in [8] it was 17.5 µM and > 10 µM; in experiment [9], 10 µM and 6.6 µM; in experiment [10], 13.5 µM and > 10 µM.
On to `COc1cc(/C=C/C(=O)c2ccc(F)cc2)ccc1OCCCN1CCN(CC(=O)Nc2ccc(Cl)cc2C(=O)c2ccccc2Cl)CC1`, for which the GI50 in experiment [1] is 29.8 µM; in experiment [2] it was 31.3 µM; in [3], 16.6 µM; in experiment [4], 4.09 µM; in experiment [5], 4.23 µM; in experiment [6] it was 3.4 µM. Moreover, the GI50 in experiment [7] is 11.3 µM; in [8], 5.06 µM; in [9], 6.05 µM; in experiment [10], 2.45 µM. For the same compound, the TGI was greater than 100 µM in experiment [1]; greater than 100 µM in experiment [2]; 40.1 µM in experiment [3]; 19.5 µM in experiment [4]; 25.9 µM in experiment [5]; 13.3 µM in [6]. The TGI in experiment [7] was 27.2 µM; in experiment [8], 45.7 µM; in experiment [9], 34.1 µM; in [10], 20 µM.
Consider `O=c1c(O)c(-c2ccc(O)c(O)c2)oc2cc(O)cc(O)c12`, for which the GI50 in [1] was 20 µM; in [2], 23.9 µM; in experiment [3] it was 16 µM; in experiment [4], 10.1 µM; in experiment [5], 10.9 µM; in experiment [6], 17.3 µM. Moreover, the GI50 was 16 µM in experiment [7], 18.7 µM in experiment [8], 4.42 µM in [9] and 8.48 µM in [10]. The TGI in experiment [1] was greater than 100 µM; in experiment [2], greater than 100 µM; in experiment [3] it was 51 µM and > 100 µM; in experiment [4], greater than 100 µM; in experiment [5] it was 65.3 µM and 47.8 µM; in experiment [6], greater than 100 µM. The TGI is 49.2 µM and > 100 µM in experiment [7]; greater than 100 µM in experiment [8]; 39.2 µM and > 100 µM in experiment [9]; greater than 100 µM in experiment [10].
For the compound `COC(=N)c1c(N)[n+]([O-])c2ccc(F)cc2[n+]1[O-]`, the GI50 is greater than 100 µM in [1]; 99.1 µM in experiment [2]; greater than 100 µM in experiment [3]; greater than 100 µM in experiment [4]; greater than 100 µM in experiment [5]; greater than 100 µM in experiment [6]. Further, the GI50 in [7] is greater than 100 µM; in experiment [8], greater than 100 µM; in experiment [9], 96.2 µM; in [10], greater than 100 µM. For the same compound, the TGI in experiment [1], in experiment [2], in experiment [3], in experiment [4], in experiment [5] and in [6] was greater than 100 µM in each case. The TGI in experiment [7], in [8], in experiment [9] and in experiment [10] was greater than 100 µM each time.
Consider `COc1ccc(CC(=O)c2ccc(O)cc2O)cc1`, for which the GI50 in [1] was greater than 100 µM; in experiment [2] it was 47.7 µM; in experiment [3], greater than 100 µM; in experiment [4] it was greater than 100 µM; in experiment [5], 40.9 µM; in experiment [6], greater than 100 µM. Further, the GI50 in experiment [7] was 61.5 µM; in experiment [8], 41.1 µM; in experiment [9], greater than 100 µM; in experiment [10], 15.4 µM. In addition, the TGI in [1], in experiment [2], in experiment [3], in experiment [4], in [5] and in experiment [6] was greater than 100 µM each time. Also, the TGI in experiment [7], in [8], in experiment [9] and in [10] was greater than 100 µM throughout.
